From patent EP0400609A1, “Intravenous solutions with quick action onset” (CIBA-GEIGY AG, priority 1989, dated 1990)
Like-named read-outs stand apart in the source and are kept apart here.

Key:
[1] = system: Tonische Konvulsionen der Kinterextremitäten; assay: Maximal electroshock test in rats; format: in vivo, Ratten; settings: for ED50: Rattus norvegicus
Excerpt: Die akute Schutzwirkung von Carbamazepin nach intravenöser Verabreichung im Vergleich zur oralen wurde mit Hilfe des maximalen Elektroschocks ermittelt. Die folgenden Methoden wurden verwendet: - Elektroschock Test an Ratten: Tonische Konvulsionen der Kinterextremitäten wurden durch Verabreichung eines Wechselstroms von 50 Hz und 36 mA während 0,63 Sekunden mit Hilfe von Cornealelektroden ausgelöst. Es wurden 10 Ratten pro Dosis und Zeiteinheit verwendet; eine Gruppe diente als Kontrolle. Die Anzahl der Ratten, die keine tonische Konvulsion der Hinterextremitäten aufwiesen, wurde für jede Gruppe bestimmt. Die ED₅₀ wurde mit Hilfe der Regressionsanalyse nach der Methode von Spearman und Kärber berechnet. - Elektroschock Test an Mäusen: Tonische Konvulsionen der Hinterextremitäten wurden durch Verabreichung eines Wechselstromes von 50 Hz und 18 mA während 0,2 Sekunden mittels Cornealelektroden ausgelöst. Für jede Dosis und Zeiteinheit wurden 10 Mäuse verwendet; eine Gruppe diente als Kontrolle. Die Anzahl der Mäuse, die keine tonische Konvulsion der Hinterextremitäten zeigten, wurde für jede Gruppe bestimmt. Die ED₅₀ wurde mit Hilfe der Regressionsanalyse nach der Methode von Spearman und Kärber bestimmt.

[2] = system: Tonische Konvulsionen der Hinterextremitäten; assay: Maximal electroshock test in mice; format: in vivo, Mäuse; settings: for ED50: Mus musculus
Excerpt: Die akute Schutzwirkung von Carbamazepin nach intravenöser Verabreichung im Vergleich zur oralen wurde mit Hilfe des maximalen Elektroschocks ermittelt. Die folgenden Methoden wurden verwendet: - Elektroschock Test an Ratten: Tonische Konvulsionen […] durch Verabreichung eines Wechselstroms von 50 Hz und 36 mA während 0,63 Sekunden mit Hilfe von Cornealelektroden ausgelöst. Es wurden 10 Ratten pro Dosis und Zeiteinheit verwendet; eine Gruppe diente als Kontrolle. Die Anzahl der Ratten, die keine tonische Konvulsion […], wurde für jede Gruppe bestimmt. Die ED50 wurde mit Hilfe der Regressionsanalyse nach der Methode von Spearman und Kärber berechnet. - Elektroschock Test an Mäusen: Tonische Konvulsionen […] durch Verabreichung eines Wechselstromes von 50 Hz und 18 […] jede Dosis und Zeiteinheit wurden 10 Mäuse verwendet; eine Gruppe diente als Kontrolle. Die Anzahl der Mäuse, die keine tonische Konvulsion […], wurde für jede Gruppe bestimmt. Die ED50 wurde mit Hilfe der Regressionsanalyse nach der Methode von Spearman und Kärber bestimmt.

[3] = Dissolution of dry preparations in water; format: physicochemical; settings: without aids, at 20°C
Method: Die unter den Nummern 14 bis 17 hergestellten Trockenpräparate lösen sich ohne Hilfsmittel in weniger als einer Minute bei 20°C in Wasser, während sich mikrokristallisiertes Carbamazepin unter den gleichen Bedingungen nicht löst.

NC(=O)N1c2ccccc2C=Cc2ccccc21 [Carbamazepin, 5H-Dibenz[b,f]azepin-5-carboxamid]
ED50 ([1]; 2.5 min, intravenous, 2,5 min after dosing, read-out: ED₅₀ in mg/kg intravenös Ratten): 1.9 mg/kg
ED50 ([1]; 2.5 min, oral, 2,5 min after dosing, read-out: ED₅₀ in mg/kg oral Ratten): > 60 mg/kg
ED50 ([1]; 5 min, intravenous, 5 min after dosing, read-out: ED₅₀ in mg/kg intravenös Ratten): 1.6 mg/kg
ED50 ([1]; 5 min, oral, 5 min after dosing, read-out: ED₅₀ in mg/kg oral Ratten): 60 mg/kg
ED50 ([1]; 0.25 h, intravenous, 15 min after dosing, read-out: ED₅₀ in mg/kg intravenös Ratten): 2.5 mg/kg
ED50 ([1]; 0.25 h, oral, 15 min after dosing, read-out: ED₅₀ in mg/kg oral Ratten): 15.4 mg/kg
ED50 ([1]; 0.5 h, intravenous, 30 min after dosing, read-out: ED₅₀ in mg/kg intravenös Ratten): 3 mg/kg
ED50 ([1]; 0.5 h, oral, 30 min after dosing, read-out: ED₅₀ in mg/kg oral Ratten): 9.6 mg/kg
ED50 ([1]; 1 h, intravenous, 60 min after dosing, read-out: ED₅₀ in mg/kg intravenös Ratten): 2.5 mg/kg
ED50 ([1]; 1 h, oral, 60 min after dosing, read-out: ED₅₀ in mg/kg oral Ratten): 10 mg/kg
ED50 ([1]; 2 h, intravenous, 120 min after dosing, read-out: ED₅₀ in mg/kg intravenös Ratten): 4 mg/kg
ED50 ([1]; 2 h, oral, 120 min after dosing, read-out: ED₅₀ in mg/kg oral Ratten): 12.5 mg/kg
Schutzwirkung, % bei 10 mg/kg, Ratten ([1]; intravenous, 240 min after dosing, 10 mg/kg, printed in place of an ED₅₀): 40 % bei 10 mg/kg
ED50 ([2]; 2.5 min, intravenous, 2,5 min after dosing, read-out: ED₅₀ in mg/kg intravenös Mäuse): 5.4 mg/kg
ED50 ([2]; 5 min, intravenous, 5 min after dosing, read-out: ED₅₀ in mg/kg intravenös Mäuse): 6.2 mg/kg
ED50 ([2]; 5 min, oral, 5 min after dosing, read-out: ED₅₀ in mg/kg oral Mäuse): 22.7 mg/kg
ED50 ([2]; 0.25 h, intravenous, 15 min after dosing, read-out: ED₅₀ in mg/kg intravenös Mäuse): 5.4 mg/kg
ED50 ([2]; 0.25 h, oral, 15 min after dosing, read-out: ED₅₀ in mg/kg oral Mäuse): 22.3 mg/kg
ED50 ([2]; 0.5 h, intravenous, 30 min after dosing, read-out: ED₅₀ in mg/kg intravenös Mäuse): 6.2 mg/kg
ED50 ([2]; 0.5 h, oral, 30 min after dosing, read-out: ED₅₀ in mg/kg oral Mäuse): 10.7 mg/kg
ED50 ([2]; 1 h, intravenous, 60 min after dosing, read-out: ED₅₀ in mg/kg intravenös Mäuse): 9.3 mg/kg
ED50 ([2]; 1 h, oral, 60 min after dosing, read-out: ED₅₀ in mg/kg oral Mäuse): 13 mg/kg
ED50 ([2]; 2 h, intravenous, 120 min after dosing, read-out: ED₅₀ in mg/kg intravenös Mäuse): 15.8 mg/kg
ED50 ([2]; 2 h, oral, 120 min after dosing, read-out: ED₅₀ in mg/kg oral Mäuse): 27 mg/kg
ED50 ([2]; 4 h, intravenous, 240 min after dosing, read-out: ED₅₀ in mg/kg in Mäuse): > 20 mg/kg
Schutzwirkung, % bei 60, oral Mäuse ([2]; oral, 2,5 min after dosing, at 60 (column unit mg/kg), printed in place of an ED₅₀): 10 % bei 60
Auflösung in Wasser [3]: nicht löst
